Measured values reported in patent US4299970A, “Oxy-alkylamino carboxylic esters” (Beecham Group Limited, priority 1974, dated 1981).
In brackets after ≈: the same amount, converted by molar mass. Where two headings read alike, the source gives them in different places.

How the values were obtained:
[1] = tested on: 5-hydroxy-tryptamine-induced bronchoconstriction; experiment: inhibition of 5-hydroxytryptamine-induced bronchoconstriction (Konsett-Rossler preparation); format: in vivo, guinea pig; conditions: Cavia porcellus; intravenous, 2 minutes prior to 5-hydroxytryptamine dose
Procedure: a. The compounds were examined for their ability to inhibit 5-hydroxy-tryptamine-induced bronchoconstriction in the anaesthetised, artifically respired guinea pig (Konsett-Rossler preparation).
H. Konsett and R. Rossler, (1940), Naunyn-Schneidebergs Arch. Exp. Path. Pharmak., 195, 71.
After preparation of the guinea pig, a dose of 5-hydroxytryptamine producing an adequate response was determined by dosing, i.v., every 6 minutes. This dose was usually 10 μg. After a standard response was obtained, compounds were given intra-venously 2 minutes prior to the next standard dose and dosing of 5-hydroxytryptamine was continued every 6 minutes until the response returned to control values.

[2] = tested on: histamine-induced asphyxic collapse; experiment: protection against aerosol administered, histamine-induced asphyxic collapse; format: in vivo, guinea pig
Source text: b. The compounds were examined for their ability to protect against aerosol administered, histamine-induced asphyxic collapse in guinea pigs.
M. A. Wasserman and R. L. Griffen, (1975), Am. Rev. Resp. Dis., 111, 946.

[3] = tested on: guinea pig platelet aggregation induced by ADP; experiment: inhibition of guinea pig platelet aggregation induced in vitro by ADP; format: cell-based; conditions: Cavia porcellus, ADP 5.45×10^-7 M, platelet rich plasma, 37° C.
Procedure: a. The compounds were examined for their ability to inhibit guinea pig platelet aggregation induced, in vitro, by 5.45×10^-7 M adenosine diphosphate (ADP).
The method consisted of diluting the compound immediately before use from a 10 mg/ml solution in ethanol to a 1 mg/ml solution with saline and then adding the appropriate volume to 0.5 ml of platelet rich plasma. The mixture was stirred at 37° C. for 1 minute before 25 μl of an ADP solution was added to give a final ADP concentration of 5.45×10^-7 M. The aggregation response was then recorded relative to the control.

[4] = tested on: human platelet aggregation induced by adenosine diphosphate (ADP); experiment: inhibition of human platelet aggregation induced in vitro by ADP; format: cell-based; conditions: 10^-4 M, platelet rich plasma, 37° C.
Procedure: (§1) b. The compounds were examined for their ability to inhibit human platelet aggregation induced, in vitro, either by adenosine diphosphate (ADP) or collagen. The compounds were added in saline or dimethylformamide to platelet rich plasma at 37° C. to give a final concentration of 10^-4 M. After 3 minutes the platelets were challenged with ADP or collagen. The aggregation response was then recorded relative to the control.

[5] = tested on: gerbil colon; contraction to prostaglandin F2α; experiment: prostaglandin antagonist activity on the isolated perfused gerbil colon (contraction to prostaglandin F2α); conditions: Meriones unguiculatus; reduction of contraction to prostaglandin F2α; one minute pre-contact time
Procedure: The compounds were tested for prostaglandin-like and for prostaglandin antagonist activity on the isolated perfused gerbil colon preparation (smooth muscle). This has been shown by J. R. Weeks, J. R. Schultz and W. E. Brown, (1968), J. App. Physiol, 25, 783, to have greater precision and sensitivity than other preparations. A 15 mm portion of the descending colon is suspended in an organ bath and perfused with De Jalon's saline at 32° C. Compounds were given in a three minute cycle with a 45 second contact time and a 15 second washout time. Antagonist compounds were given with a one minute pre-contact time.
Antagonist activity was determined by measuring the percentage reduction of the contraction to two standard doses of prostaglandin F2α which gave responses between 20% and 80% of maximum response.

[6] = tested on: femoral artery of the hind limb; experiment: vasodilator activity in femoral artery of the hind limb (vascular resistance); format: in vivo, beagle dog; conditions: dose range of 0.01-1 mg/kg, intra-arterially
Procedure: (§2) b. The vasodilator activity of the compounds was determined in the femoral artery of the hind limb of the anaesthetised beagle dog. The method used was similar to that described by J. Nakano and J. R. McCurdy, (1967), J. Pharmac. Exp. Ther., 156, 538.
The compounds were administered into the iliac artery and the effects on both flow and pressure in the hind limb were recorded. Changes in vascular resistance (R) were calculated from the following expression: [formula]

[7] = tested on: total peripheral resistance; experiment: total peripheral resistance, intravenous; format: in vivo, beagle dog; conditions: dose range of 0.01-10 mg/kg, intra-venously
Procedure: as §2
In other experiments the compounds were administered into the left femoral vein and the right femoral arterial pressure and cardiac output were monitored. From these experiments, total peripheral resistance (TPR) was calculated from the expression: [formula]

blood pressure = experiment: anti-hypertensive activity in the renal hypertensive rat; format: in vivo; conditions: 100 mg/kg, orally
Procedure: c. The anti-hypertensive activity of the compounds was determined in the renal hypertensive rat. Rats were made hypertensive by nephrectomy and treatment with deoxycorticosterone acetate/NaCl. The compounds were administered orally to a group of 3 hypertensive rats at a dose level of 100 mg/kg and their blood pressure was monitored after 4, 6 and 24 hours.

[8] = tested on: human platelet aggregation induced by collagen; experiment: inhibition of human platelet aggregation induced in vitro by collagen; format: cell-based; conditions: for inhibition at 100 µM: 10^-4 M, collagen, platelet rich plasma, 37° C.
Procedure: as §1

[9] = tested on: gastric acid secretion, stimulated by pentagastrin infusion; experiment: inhibition of pentagastrin-stimulated gastric acid secretion, chronic fistula rat preparation; format: in vivo; conditions: 2-5 mg/kg, s.c.
Source text: c. The compounds were examined for their ability to inhibit gastric acid secretion, stimulated by pentagastrin infusion, in the chronic fistula rat preparation.
P. H. Guth and R. Mendick, (1965), Amer. J. Gastroenterology, 44, 545.

gastric acid secretion = experiment: inhibition of gastric acid secretion in the pyloric ligated rat (Shay rat preparation); format: in vivo; conditions: for ED50: sc
Source text: b. The compounds were examined for their ability to inhibit gastric acid secretion in the pyloric ligated rat model (Shay rat preparation).
H. Shay, S. A. Komarov, S. S. Fels, D. Merance, M. Gruenstein and H. Siplet, (1945), Gastroenerology, 5, 43.

arterial blood pressure = experiment: effect on arterial blood pressure in the anaesthetised, normotensive rat; format: in vivo; conditions: intravenous, dose range 0.001 → 1.0 mg/kg
Procedure: a. The effect of the compounds on arterial blood pressure was determined in the anaesthetised, normotensive rat. The rat preparation was similar to that desribed in "Pharmacological experiments on intact preparations", E. and S. Livingstone, Edinburgh and London, 1970, p. 63.
The active compounds were predominantly depressor agents in the normotensive rat.

[10] = tested on: pentagastrin-stimulated gastric acid secretion; experiment: inhibition of pentagastrin-stimulated gastric acid secretion, anaesthetised perfused rat stomach (Ghosh and Schild preparation); format: in vivo; conditions: intravenous
Source text: a. The compounds were examined for their ability to inhibit pentagastrin-stimulated gastric acid secretion in the anaesthetised, perfused rat stomach preparation (Ghosh and Schild preparation).
M. N. Ghosh and H. O. Schild, (1958), Brit. J. Pharmacol, 13, 54.
The compounds were given intravenously.

[11] = tested on: indomethacin-induced ulcer; experiment: indomethacin-induced ulcer test in fasted rats; format: in vivo, rat; conditions: 20 mg/kg, s.c., twice; 5 hour test; indomethacin 50 mg/kg, i.p.
Procedure: d. Anti-ulcer activity was determined in a 5 hour indomethacin-induced (50 mg/kg, i.p.) ulcer test in fasted rats. Compound 63 inhibited ulceration by 71% when given at 20 mg/kg, s.c., twice during the course of the test.

antifertility activity = antifertility activity in female mice; format: in vivo; conditions: 50-100 mg/kg, s.c.; 5 days pre-coitally and 10 days post-coitally
Procedure: Antifertility activity was determined by subcutaneous dosing of female mice for 5 days pre-coitally and 10 days post-coitally. Three female mice per group were used and these were mated with males of proven fertility and mating confirmed by examination for copulation plugs.

[12] = subcutaneously twice, 3 hour Shay rat preparation

Question: For CCCCCCCC(C)(O)CCN1C(=O)CC(=O)C1CCCCCCC(=O)OCC (centres unmarked) [Compound 64, 2-(6'-Ethoxycarbonyl-n-hexyl)-1-(3"-hydroxy-3"-methyl-n-decyl)-pyrrolidin-3,5-dione], which ED50 [1] is on record?
Answer: Its ED50 is 0.011 mg/kg.

Question: What about the “protecting against histamine challenge” value [2] of the same compound?
Answer: Its value is “very effective”.

Question: What about the IC50 [3] of the same compound?
Answer: Its IC50 is 9 µM.

Question: What does the source list for CCCCCC(O)CCN1C(=O)CCC(=O)C1CCCCCCC(=O)OCC (centres unmarked) [Compound 73, 2-(6'-Ethoxycarbonyl-n-hexyl)-1-(3"-hydroxy-n-octyl)-piperidin-3,6-dione]?
Answer: inhibition at 100 µM [4]: 87%; IC50 [5]: 3.4 µg/mL (≈ 8.55 µM); vascular resistance [6]: decreased vascular resistance; total peripheral resistance (TPR) [7]: decreased total peripheral resistance; fall in blood pressure after 4 hours (blood pressure; 4 hours): 16%; blood pressure after 6 hours (blood pressure; 6 hours): risen to normal hypertensive levels; inhibition at 100 µM [8]: 100%; IC50 ([8]; Platelet, read-out: IC50 against collagen-induced aggregation): 2.8 µM; IC50 [3]: 44 µM

Question: Which results are given for CCCCCCC(C)(O)CCN1C(=O)CC(=O)C1CCCCCCC(=O)OCC (centres unmarked) [Compound 63, 2-(6'-Ethoxycarbonyl-n-hexyl)-1-(3"-hydroxy-3"-methyl-n-nonyl)-pyrrolidin-3,5-dione]?
Answer: ED50 [1]: 0.008 mg/kg; inhibiting acid secretion [9]: very effective; activity when given intraduodenally (gastric acid secretion; intraduodenally, Shay rat preparation): active; ED50 (gastric acid secretion; subcutaneously once, 3 hour Shay rat preparation, at the time of ligation, read-out: ED50, given once): 5.3 mg/kg; ED50 (gastric acid secretion; subcutaneously twice, 3 hour Shay rat preparation, at time of ligation and 1.5 hours after, read-out: ED50, given twice): 2.25 mg/kg; H^+ concentration (gastric acid secretion; [12]): decreasing the H^+ concentration; total titratable acidity in the stomach (gastric acid secretion; [12]): lowered the total titratable acidity in the stomach; volume of secretion (gastric acid secretion; [12]): inhibiting the volume of secretion; vascular resistance [6]: decreased vascular resistance; % Depression at 1 mg/kg (arterial blood pressure): 60%; total peripheral resistance (TPR) [7]: decreased total peripheral resistance; ED50 [10]: 0.09 mg/kg; inhibition of ulceration [11]: 71%; protecting against histamine challenge [2]: very effective; IC50 [3]: 1.3 µM

Question: What does the source list for CCCCCCCCN1CCCC(O)C1CCCCCCC (centres unmarked) [Compound 112, 2-n-heptyl-3-hydroxy-1-n-octyl-piperidine]?
Answer: vascular resistance [6]: decreased vascular resistance; total peripheral resistance (TPR) [7]: decreased total peripheral resistance; antifertility activity (antifertility activity): active; inhibition at 100 µM [8]: 77%

Question: For CCCCCCC(O)CCN1CCC(O)C1CCCCCCCO (centres unmarked) [Compound 108], which antifertility activity (antifertility activity) is on record?
Answer: Its antifertility activity is “active”.
